Test results published in patent US10538561B2, “Peptide for treating inflammatory diseases” (priority 2015, dated 2020).
Marks after values point to notes of the source that are not given here.

Key:
[1] = Cell viability (MTT assay) in SK-MEL-28; format: cell-based, Human; conditions: human, SK-MEL-28 melanoma cells
Description: (§1) Cell Lines/Cells: Human Keratinocytes (HaCaT); Human melanoma (SK-MEL-28); Human PBMCs. Test Item: IS181 Treatment regimen: Single addition—24 h, ^#Multiple additions (3)−72 h; Concentration range: 1 ng/ml-2 mg/ml (triplicate wells); Sera Condition: […] Method of estimation: MTT assay. […] Positive control: Triton-X-100, Doxorubicin Hydrochloride.

[2] = system: Human melanoma (SK-MEL-28); assay: Cell viability (MTT assay) in SK-MEL-28; format: cell-based
Description: as §1

[3] = system: Human Keratinocytes (HaCaT); assay: DNA fragmentation assay in HaCaT; format: cell-based; conditions: 48 h
Description: Cells were lysed and fragmented DNA was precipitated using PEG/NaCl solution. The fragmented DNA was incubated with 0.2 μg/ml of Hoechst 33258 dye and fluorescence was read at 360 ex/460 em. End point: Percentage induction of DNA fragmentation with respect to untreated Positive control. Anthralin. IS 181 led to induction of DNA fragmentation in HaCaT cells at all the concentrations tested except at 100 μg/ml. […] The overall effect of IS 181 on induction of DNA fragmentation with respect to untreated in HaCaT cells ranged from −18.8% to 83.3%. (FIG. 8 and Table-6).

[4] = system: Human endothelial cells (EA.hy 926); assay: Inhibition of FBS stimulated endothelial cell proliferation (MTT); format: cell-based; conditions: for Absorbance (Mean ± SD) at 540 nm: EA.hy926, 10% FBS, 72 h
Description: Cell line: Human endothelial cells (EA.hy 926); test item: IS 181: treatment regimen: multiple additions (3)-72 hours; concentration range: 1 6 g/ml to 5000 6 g/ml (triplicate wells); sera condition: medium containing 10% FBS. […] The cells were then subjected to complete serum starvation. The cells were retreated with 10% FBS to stimulate cellular proliferation. […] Inhibition of FBS stimulated cell proliferation was measured using MTT assay. End point: percentage inhibition of FBS stimulated cell proliferation. Positive controls: anthralin; paclitaxel.

IL-6 = assay: LPS stimulated IL-6 secretion in RAW264.7; format: cell-based, Mouse; conditions: for IL-6 % decrease with respect to LPS / IL-6 Conc (pg/ml): RAW264.7 + LPS, 24 h
Description: Effect on pro-inflammatory cytokines against LPS stimulation: TNF-α; IL-6; IL-1-β: Cell lines: Murine macrophage cell line (RAW264.7); test item: IS181; experimental steps: pretreatment of cells with TI for 2 hours; stimulation with LPS (100 ng/ml) for 24 hours; supernatant collection for cytokine analysis; concentration range: o.1 μg/ml-500 μg/ml (duplicate wells); Cytokines: TNF-α; IL-6; IL-1-β; Method of estimating cytokines: ELISA; positive control: dexamethasone.
Cell line: RAW264.7 (Mouse macrophages); TI treatment regimen: Pretreatment for 2 h; TI Concentration range: 0.1 μg/ml-500 μg/ml (duplicate wells); LPS stimulation: 100 ng/ml; Time point for supernatants collection: 24 h; Method of estimation: ELISA; Positive control: Dexamethasone

IFN-γ = assay: TNF-α stimulated IFN-γ secretion in HaCaT; format: cell-based, Human; design: IFN-γ Conc (μ/ml): unit not given here; conditions: for IFN-γ % decrease with respect to TNF-α / IFN-γ Conc (μ/ml): HaCaT + TNF-α, 24 h
Description: Effect on pro-inflammatory cytokines against TNF-α/LPS+PMA stimulation: TNF-α; IFN-γ; TARC; TSLP; IL-6; IL-8: Cell lines: Human keratinocytes (HaCaT); test item (TI); IS181; experimental steps: pre-treatment of cells with TI for 2 hours; stimulation with TNF-α: 20 ng/ml; stimulation with LPS+PMA-10 μg/ml LPS+40 ng/ml PMA; supernatant collection for cytokine analysis after 24 hours; concentration range: 0.1 μg/ml-100 μg/ml (duplicate wells); cytokines: TNF-α; IFN-γ; TARC; TSLP; IL-6; IL-8. Method of estimating cytokines: ELISA; positive control: dexamethasone.
Cell line: HaCaT (Human Keratinocytes); TI Treatment regimen: Pretreatment for 2 h; TI Concentration range: 0.1 μg/ml-100 μg/ml (duplicate wells); TNF-α stimulation: 20 ng/ml; LPS+PMA stimulation: 10 μg/ml LPS+40 ng/ml PMA; Time point for supernatants collection: 24 h; Method of estimation: ELISA; Positive control: Dexamethasone

## H-WVQRVVEKFLK-OH [IS181, H-Trp-Val-Gln-Arg-Val-Val-Glu-Lys-Phe-Leu-Lys-OH]
[1]; SK-MEL-28, 24 h, 0.001 μg/ml
  cytotoxicity at 24 h, 0.001 μg/ml: -4.04%
[1]; SK-MEL-28, 24 h, 0.01 μg/ml
  cytotoxicity at 24 h, 0.01 μg/ml: -1.91%
[1]; SK-MEL-28, 24 h, 0.05 μg/ml
  cytotoxicity at 24 h, 0.05 μg/ml: 2.39%
[1]; SK-MEL-28, 24 h, 0.1 μg/ml
  cytotoxicity at 24 h, 0.1 μg/ml: -4.93%
[1]; SK-MEL-28, 24 h, 0.5 μg/ml
  cytotoxicity at 24 h, 0.5 μg/ml: -1.29%
[1]; SK-MEL-28, 24 h, 1 μg/ml
  cytotoxicity at 24 h, 1 μg/ml: -12.5%
[1]; SK-MEL-28, 24 h, 5 μg/ml
  cytotoxicity at 24 h, 5 μg/ml: -16.3%
[1]; SK-MEL-28, 24 h, 10 μg/ml
  cytotoxicity at 24 h, 10 μg/ml: -14%
[1]; SK-MEL-28, 24 h, 50 μg/ml
  cytotoxicity at 24 h, 50 μg/ml: -6.96%
[1]; SK-MEL-28, 24 h, 100 μg/ml
  cytotoxicity at 24 h, 100 μg/ml: -2.97%
[1]; SK-MEL-28, 24 h, 1000 μg/ml
  cytotoxicity at 24 h, 1000 μg/ml: -11.9%
[1]; SK-MEL-28, 72 h, 0.1 μg/ml
  cytotoxicity at 72 h, 0.1 μg/ml: -10.9%
[1]; SK-MEL-28, 72 h, 0.5 μg/ml
  cytotoxicity at 72 h, 0.5 μg/ml: -14.2%
[1]; SK-MEL-28, 72 h, 1 μg/ml
  cytotoxicity at 72 h, 1 μg/ml: -20%
[1]; SK-MEL-28, 72 h, 5 μg/ml
  cytotoxicity at 72 h, 5 μg/ml: 9.03%
[1]; SK-MEL-28, 72 h, 10 μg/ml
  cytotoxicity at 72 h, 10 μg/ml: 6.16%
[1]; SK-MEL-28, 72 h, 50 μg/ml
  cytotoxicity at 72 h, 50 μg/ml: -4.36%
[1]; SK-MEL-28, 72 h, 100 μg/ml
  cytotoxicity at 72 h, 100 μg/ml: 5.78%
[1]; SK-MEL-28, 72 h, 500 μg/ml
  cytotoxicity at 72 h, 500 μg/ml: 94%
[1]; SK-MEL-28, 72 h, 1000 μg/ml
  cytotoxicity at 72 h, 1000 μg/ml: 91%
[1]; SK-MEL-28, 72 h, 2000 μg/ml
  cytotoxicity at 72 h, 2000 μg/ml: 92%
[2]; 24 h
  IC50: > 700 µM
  IC50 value: >1000 µg/mL
  Selectivity Index -IC50 (PBMC)/IC50 (HaCaT/SK-MEL-28 cells): ≤2
[2]; 72 h
  IC50: 160 µM
  Selectivity Index -IC50 (PBMC)/IC50 (HaCaT/SK-MEL-28 cells): 4
[2]; SK-MEL-28, 72 h
  IC50 value: 230 µg/mL
[2]; SK-MEL-28, 72 h, concentrations ≥0.5 mg/ml
  cytotoxicity: > 90%
[2]; SK-MEL-28, after 24 h of treatment
  cytotoxic effects: no cytotoxic effects
[3]; 100 μg/ml
  % induction of DNA fragmentation: −18.8%
[3]; 100 μg/ml to 5000 μg/ml
  overall effect on induction of DNA fragmentation with respect to untreated: −18.8% to 83.3%
[3]; 500 μg/ml
  % induction of DNA fragmentation: 35.4%
[3]; 1000 μg/ml
  % induction of DNA fragmentation: 35.4%
[3]; 2000 μg/ml
  % induction of DNA fragmentation: 27.1%
[3]; 5000 μg/ml
  % induction of DNA fragmentation: 83.3%
[4]; EA.hy926, 5 μg/ml to 1000 μg/ml
  inhibition of FBS stimulated cell proliferation: significant inhibition
[4]; EA.hy926, 2000 μg/ml to 5000 μg/ml
  cytotoxic effects: cytotoxic effects
[4]; 1 μg/ml
  Absorbance (Mean ± SD) at 540 nm: 0.48 ± 0.006
[4]; 5 μg/ml
  Absorbance (Mean ± SD) at 540 nm: 0.45 ± 0.027
[4]; 10 μg/ml
  Absorbance (Mean ± SD) at 540 nm: 0.46 ± 0.012
[4]; 50 μg/ml
  Absorbance (Mean ± SD) at 540 nm: 0.41 ± 0.011
[4]; 100 μg/ml
  Absorbance (Mean ± SD) at 540 nm: 0.41 ± 0.012
[4]; 500 μg/ml
  Absorbance (Mean ± SD) at 540 nm: 0.33 ± 0.004
[4]; 1000 μg/ml
  Absorbance (Mean ± SD) at 540 nm: 0.22 ± 0.008
[4]; 2000 μg/ml
  Absorbance (Mean ± SD) at 540 nm: 0.09 ± 0.0003
IL-6; RAW264.7
  IL-6 inhibition as compared to LPS stimulated levels: good extent of TNF-α and IL-6 inhibition
IL-6; 0.1 μ/ml
  IL-6 % decrease with respect to LPS: 57.2%
  IL-6 Conc (pg/ml): 908.7*** pg/ml
IL-6; 1 μ/ml
  IL-6 % decrease with respect to LPS: 41.2%
  IL-6 Conc (pg/ml): 1248.3*** pg/ml
IL-6; 5 μ/ml
  IL-6 % decrease with respect to LPS: 26.3%
  IL-6 Conc (pg/ml): 1565.9*** pg/ml
IL-6; 10 μ/ml
  IL-6 % decrease with respect to LPS: 76.4%
  IL-6 Conc (pg/ml): 501.5*** pg/ml
IL-6; 100 μ/ml
  IL-6 % decrease with respect to LPS: 35.4%
  IL-6 Conc (pg/ml): 1371.8*** pg/ml
IL-6; 500 μ/ml
  IL-6 % decrease with respect to LPS: 68.5%
  IL-6 Conc (pg/ml): 669.1*** pg/ml
IL-6; RAW264.7, 0.1 μg/ml-500 μg/ml
  inhibition of IL-6 secretion as compared to LPS treated cells: 26.3%-76.4%
IFN-γ; 0.1 μg/ml-100
  IFN-γ secretion downregulated as compared to TNF-α stimulated cells: 27.1%-40.1%
IFN-γ; HaCaT
  IFN-γ inhibition: good extent of IFN-γ and TARC inhibition
IFN-γ; 0.1 μg/ml
  IFN-γ % decrease with respect to TNF-α: 35.6%
  IFN-γ Conc (μ/ml): 30.7***
IFN-γ; 1 μg/ml
  IFN-γ % decrease with respect to TNF-α: 36.7%
  IFN-γ Conc (μ/ml): 30.1***
IFN-γ; 5 μg/ml
  IFN-γ % decrease with respect to TNF-α: 40.1%
  IFN-γ Conc (μ/ml): 28.6***
IFN-γ; 10 μg/ml
  IFN-γ % decrease with respect to TNF-α: 27.1%
  IFN-γ Conc (μ/ml): 34.7***
IFN-γ; 100 μg/ml
  IFN-γ % decrease with respect to TNF-α: 32.0%
  IFN-γ Conc (μ/ml): 32.4***
